Among the test systems are A549; BT-549; CAKI-1; COLO 205; EKVX; HCC 2998; HCT-15; HOP-62; HOP-92; IGROV-1; K562; LOX IMVI; RPMI-8226; SK-MEL-28; SK-MEL-5; T47D; TK-10; UO-31; NCI-H226; NCI-H522.
Common to all, as to test: DTP human tumour cell line panel, 48 h

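In this assay, cells in 96-well plates receive the compound at five concentrations for 48 hours. Endpoints are linearly interpolated between the surrounding concentrations. GI50 = concentration required for 50% inhibition of growth.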 Active and inactive are the calls of the source. No stated cut-off is given here; in the data, active = GI50 up to about 1.1 µM and inactive = higher.

Results on nine compounds are retold here after ChEMBL document CHEMBL1201862, “PubChem BioAssay data set” (2004).

The GI50 is the concentration giving 50% growth inhibition. With `CCCC(=O)C1=C(O)C(Cc2c(O)c(C)c(O)c(C(=O)CCC)c2O)=C(O)C(C)(C)C1=O`, the GI50 with A549 is 25.2 µM (inactive); with BT-549 it was > 50 µM (inactive); with CAKI-1, > 50 µM (inactive); in the test with COLO 205 it was 19.4 µM (inactive); in the test on EKVX, > 50 µM (inactive); with HCC 2998, 10.9 µM (inactive). The 50% growth inhibitory concentration (GI50) was 20 µM with HCT-15; 31.8 µM (inactive) with HOP-62; 10.2 µM (inactive) with HOP-92; 37 µM (inactive) in the test with IGROV-1; 15.4 µM (inactive) in the test on K562; 19 µM (inactive) in the test with LOX IMVI. Moreover, the GI50 was 17 µM (inactive) in the test with RPMI-8226; 16.2 µM (inactive) with SK-MEL-28; > 50 µM (inactive) in the test on SK-MEL-5; 49.2 µM (inactive) with T47D; 30.6 µM (inactive) in the test on TK-10; 15.6 µM (inactive) in the test with UO-31.

On to `COc1c2cc([N+](=O)[O-])cc1CN(C(=O)C(F)(F)F)CCOCCN(C(=O)C(F)(F)F)C2`, for which the GI50 in the test on A549 is > 100 µM (inactive); with BT-549 it was 70.6 µM (inactive); in the test with CAKI-1 it was > 100 µM (inactive); with COLO 205, > 100 µM (inactive); with EKVX it was > 100 µM (inactive); with HCT-15 it was more than 100 µM. Also, the GI50 in the test with HOP-62, in the test with HOP-92, in the test with IGROV-1, in the test with LOX IMVI, with NCI-H226 and in the test with NCI-H522 was > 100 µM (inactive) throughout. For the same compound, the GI50 in the test with SK-MEL-28, with SK-MEL-5, with T47D, with TK-10 and with UO-31 was > 100 µM (inactive) each time.

As to `C=CCCC(=O)C(=[N+]=[N-])C(=O)CCC(=O)c1ccccc1`, the GI50 is > 10 µM (inactive) in the test with A549; > 10 µM (inactive) in the test with BT-549; > 10 µM (inactive) in the test with EKVX; more than 10 µM in the test on HCT-15; > 10 µM (inactive) in the test on HOP-62; > 10 µM (inactive) in the test with HOP-92. For the same compound, the GI50 in the test with IGROV-1, in the test with K562, with LOX IMVI, with NCI-H226, in the test with RPMI-8226 and in the test with SK-MEL-28 was > 10 µM (inactive) each time. The GI50 in the test with SK-MEL-5, in the test on T47D, with TK-10 and with UO-31 was > 10 µM (inactive) throughout.

For the compound `COc1ccc(/N=N/c2c(C)c(C#N)c(=S)n(C3OC(CO)C(O)C(O)C3O)c2C)cc1` (configuration not stated), the GI50 with A549 was 52.1 µM (inactive); in the test on BT-549, 32.7 µM (inactive); with CAKI-1, 56.2 µM (inactive); in the test on COLO 205 it was 58.3 µM (inactive); with HCT-15 it was 53.1 µM; with HOP-62, 42.3 µM (inactive). In addition, the GI50 in the test on HOP-92 was 16.9 µM (inactive); in the test with IGROV-1, 54.1 µM (inactive); in the test with K562, 29 µM (inactive); with LOX IMVI it was 56.4 µM (inactive); with RPMI-8226, 39.2 µM (inactive); in the test with SK-MEL-28, 30.8 µM (inactive). Further, the GI50 with SK-MEL-5 was 14.5 µM (inactive); in the test with T47D, 28.6 µM (inactive); with TK-10 it was 82 µM (inactive); in the test on UO-31, 41.9 µM (inactive).

Consider `O=C1C2=Cc3ccccc3OC2(O)Oc2cc(O)cc(O)c21` (configuration not stated), for which the GI50 in the test on A549, in the test on BT-549, with CAKI-1, in the test on COLO 205, in the test on EKVX and in the test on HCC 2998 was > 100 µM (inactive) in each case. For the same compound, the GI50 was more than 10 µM in the test on HCT-15; > 100 µM (inactive) in the test on HOP-62; > 100 µM (inactive) with HOP-92; > 100 µM (inactive) in the test on IGROV-1; 81.7 µM (inactive) in the test on K562; > 100 µM (inactive) in the test with LOX IMVI. Besides, the GI50 in the test with NCI-H226, with RPMI-8226, with SK-MEL-28, in the test on SK-MEL-5, in the test on T47D and in the test on TK-10 was > 100 µM (inactive) in each case.

With `CCCn1c(=O)c(N2CCN(c3ccccc3)CC2)nc2sc3ccccc3c21`, the GI50 is > 100 µM (inactive) with A549; 97.3 µM (inactive) in the test on BT-549; > 100 µM (inactive) in the test with CAKI-1; > 100 µM (inactive) in the test with COLO 205; > 100 µM (inactive) with EKVX; more than 100 µM in the test with HCT-15. In addition, the GI50 in the test with HOP-62, in the test with HOP-92, in the test with IGROV-1, in the test on LOX IMVI, with NCI-H522 and in the test on SK-MEL-28 was > 100 µM (inactive) throughout. In addition, the GI50 with SK-MEL-5, with T47D, with TK-10 and with UO-31 was > 100 µM (inactive) each time.

Regarding `C#CCOC(=O)c1ccccc1OC(C)=O`, the GI50 in the test with BT-549 was > 100 µM (inactive); in the test with CAKI-1 it was > 100 µM (inactive); in the test with COLO 205 it was > 100 µM (inactive); with EKVX it was > 100 µM (inactive); in the test with HCT-15, more than 100 µM; in the test with HOP-62 it was > 100 µM (inactive). Moreover, the GI50 with HOP-92, in the test on IGROV-1, with K562, in the test on LOX IMVI, in the test with NCI-H226 and with NCI-H522 was > 100 µM (inactive) in each case. The GI50 in the test with RPMI-8226, in the test on SK-MEL-5, with T47D, in the test on TK-10 and in the test with UO-31 was > 100 µM (inactive) in each case.

Consider `Cc1nn(-c2ccccc2)c(C)c1/C=N/N=C1\S/C(=C\c2ccc(Cl)cc2)C(=O)N1c1ccccc1`, for which the GI50 with A549 was 10.7 µM (inactive); in the test on BT-549 it was > 100 µM (inactive); in the test on CAKI-1 it was > 100 µM (inactive); with COLO 205, > 100 µM (inactive); in the test with EKVX it was > 100 µM (inactive); in the test on HCT-15, 9.89 µM. The GI50 is 20.1 µM (inactive) with HOP-62; 91 µM (inactive) with HOP-92; 5.83 µM (inactive) in the test with IGROV-1; 7.91 µM (inactive) in the test on K562; > 100 µM (inactive) with LOX IMVI; > 100 µM (inactive) in the test on NCI-H226. Further, the GI50 is 26.4 µM (inactive) in the test with RPMI-8226; > 100 µM (inactive) in the test on SK-MEL-28; > 100 µM (inactive) in the test with SK-MEL-5; > 100 µM (inactive) in the test with T47D; 14.2 µM (inactive) in the test on TK-10; > 100 µM (inactive) with UO-31.

Turning to `Cc1ccc(S(=O)(=O)NC(=O)NC(C(=O)O)C(C)O)cc1` (configuration not stated), the GI50 is > 100 µM (inactive) in the test on A549; > 100 µM (inactive) with BT-549; > 100 µM (inactive) in the test on COLO 205; more than 100 µM in the test on HCT-15; > 100 µM (inactive) in the test with HOP-62; > 100 µM (inactive) in the test with HOP-92. In addition, the GI50 in the test with IGROV-1, in the test on K562, in the test on LOX IMVI, with NCI-H522, in the test with RPMI-8226 and in the test on SK-MEL-28 was > 100 µM (inactive) in each case. Moreover, the GI50 with SK-MEL-5, in the test on T47D, with TK-10 and with UO-31 was > 100 µM (inactive) each time.
